Data from patent US20260007675A1, “TARGETING CHROMATIN REGULATORS INHIBITS LEUKEMOGENIC GENE EXPRESSION IN NPM1 MUTANT LEUKEMIA” (MEMORIAL SLOAN KETTERING CANCER CENTER, priority 2016, published 2026).

Assays:
[1] = test system: HOX, MEIS1 and FLT3 expression in OCI-AML3 cells; assay: Gene expression (quantitative PCR / RNA sequencing) in OCI-AML3 cells; assay type: cell-based, human
[2] = test system: OCI-AML3 cells; assay: Cell viability / proliferation assay in OCI-AML3 cells; assay type: cell-based, human
Procedure: (§1) Proliferation assays were performed as previously described. Viable cell counts were determined by flow cytometry using Sytox Blue (Invitrogen) or DAPI viability stains.

[3] = test system: Hoxa9-Meis1 transformed cells; assay: Colony forming assay in Hoxa9-Meis1 transformed cells; assay type: cell-based, murine; details: Hoxa9-Meis1 in vitro transformed cells, EPZ4777 10 μM
[4] = molecular target: DOT1L (Homo sapiens (Human), UniProt Q8TEK3); details: cited from earlier work
[5] = test system: Npm1CA/+RosaSB/+ leukemia cells; assay: Transplantation of ex vivo pretreated Npm1CA/+RosaSB/+ leukemia cells (leukemia initiating potential); assay type: in vivo, mice; details: for survival compared to vehicle control: pretreated Npm1CA/+RosaSB/+ cells, single compound
Procedure: As HOX gene expression is associated with self-renewal properties, the inventors next determined whether pharmacological DOT1L inhibition inhibits NPM1^mut leukemia initiation in mice. Murine Npm1^CA/+Rosa^SB/+ leukemia cells were treated ex vivo with EPZ4777 or drug vehicle for 10 days and equal numbers of viable cells were transplanted into sublethally irradiated recipient animals.
Npm1^CA/+Flt3^ITD/+ and Npm1^CA/+Rosa^SB/+ cells were harvested from moribund leukemic animals and transplanted into primary and secondary recipient mice as previously described. […] All transplantation experiments with ex vivo treated cells were performed as secondary transplantations.

[6] = test system: Npm1CA/+RosaSB/+ and Npm1CA/+Flt3ITD/+ leukemia cells; assay: Colony forming and liquid culture proliferation assays in murine NPM1mut leukemia cells; assay type: cell-based; details: EPZ4777 10 μM
Procedure: For drug testing experiments, leukemic blasts were harvested from moribund primarily transplanted mice and cultured in vitro.
as §1
RNA and DNA purification, cDNA synthesis, quantitative real-time (qRT-) PCR, western blotting, flow cytometry, colony forming assays, viral transduction and shRNA based knock down experiments were performed using standard procedures. Primer sequences, western antibodies, and plasmids are also listed in the supplement.

[7] = test system: HL-60 cells; assay: Cell viability / proliferation assay in HL-60 cells; assay type: cell-based, human
Procedure: as §1

[8] = test system: menin, H3K4me3 and H3K79me2 at HOX and MEIS1 loci in OCI-AML3 cells; assay: Chromatin immunoprecipitation-qPCR and immunoblotting of chromatin marks in OCI-AML3 cells; assay type: cell-based, human; details: OCI-AML3, EPZ4777 10 μM
[9] = test system: OCI-AML3 cells; assay: Cell differentiation by CD11b flow cytometry in OCI-AML3 cells; assay type: cell-based, human; details: OCI-AML3, MI-2-2 12 μM, day seven of treatment
[10] = test system: OCI-AML3 cells; assay: OCI-AML3 xenotransplantation model in NSG mice; assay type: in vivo; details: MI-503 50 mg/kg bid IP, versus vehicle
[11] = OCI-AML3, 4 days of MI-2-2 treatment (12 μM)

Chain of DOT1L (Q8TEK3 whole entry): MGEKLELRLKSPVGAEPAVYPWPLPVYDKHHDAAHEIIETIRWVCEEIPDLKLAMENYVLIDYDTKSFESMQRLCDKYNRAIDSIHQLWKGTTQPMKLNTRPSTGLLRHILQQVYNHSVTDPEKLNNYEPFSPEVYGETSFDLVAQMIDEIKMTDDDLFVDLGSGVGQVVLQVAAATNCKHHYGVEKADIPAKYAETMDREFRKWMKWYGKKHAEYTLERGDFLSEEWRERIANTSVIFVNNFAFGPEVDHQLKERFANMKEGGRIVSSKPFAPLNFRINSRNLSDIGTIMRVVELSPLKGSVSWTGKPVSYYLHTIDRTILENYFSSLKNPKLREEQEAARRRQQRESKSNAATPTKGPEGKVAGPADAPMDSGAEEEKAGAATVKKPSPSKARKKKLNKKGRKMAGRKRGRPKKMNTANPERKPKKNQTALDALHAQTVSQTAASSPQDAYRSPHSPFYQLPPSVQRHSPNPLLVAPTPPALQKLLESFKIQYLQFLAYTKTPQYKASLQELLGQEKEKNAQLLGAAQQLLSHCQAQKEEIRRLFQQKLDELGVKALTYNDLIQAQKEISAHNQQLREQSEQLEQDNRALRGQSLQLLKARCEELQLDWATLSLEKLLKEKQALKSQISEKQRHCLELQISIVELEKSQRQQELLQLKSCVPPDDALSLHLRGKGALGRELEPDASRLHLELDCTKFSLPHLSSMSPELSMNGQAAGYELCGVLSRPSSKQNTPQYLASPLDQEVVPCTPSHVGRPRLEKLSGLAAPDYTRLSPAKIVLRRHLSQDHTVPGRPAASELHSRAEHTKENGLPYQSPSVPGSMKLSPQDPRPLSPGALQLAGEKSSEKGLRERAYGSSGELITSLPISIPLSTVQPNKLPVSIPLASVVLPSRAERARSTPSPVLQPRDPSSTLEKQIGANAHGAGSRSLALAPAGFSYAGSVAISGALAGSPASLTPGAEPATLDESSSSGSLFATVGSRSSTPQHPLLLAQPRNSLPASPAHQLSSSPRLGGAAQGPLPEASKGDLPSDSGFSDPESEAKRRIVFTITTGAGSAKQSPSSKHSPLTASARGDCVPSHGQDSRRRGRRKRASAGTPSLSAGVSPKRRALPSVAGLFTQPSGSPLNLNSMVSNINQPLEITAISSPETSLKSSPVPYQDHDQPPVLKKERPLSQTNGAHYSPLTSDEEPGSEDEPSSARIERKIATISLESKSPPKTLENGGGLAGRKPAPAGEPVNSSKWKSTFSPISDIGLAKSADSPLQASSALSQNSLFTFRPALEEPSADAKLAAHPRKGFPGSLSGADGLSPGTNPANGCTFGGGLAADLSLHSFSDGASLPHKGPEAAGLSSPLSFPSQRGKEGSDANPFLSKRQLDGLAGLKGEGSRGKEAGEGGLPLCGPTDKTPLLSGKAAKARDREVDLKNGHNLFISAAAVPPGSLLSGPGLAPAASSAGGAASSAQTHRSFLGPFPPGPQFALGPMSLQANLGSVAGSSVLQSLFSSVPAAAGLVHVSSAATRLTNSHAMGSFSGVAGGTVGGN

| Structure (SMILES) | FLT3 expression ([1]; EPZ4777 10 μM, 7 days, all NPM1mut models) | HOX gene expression ([1]; EPZ4777 10 μM, 7 days, human and murine models) | cell proliferation ([2]; human NPM1mut leukemia cells (OCI-AML3), EPZ4777 10 μM) | colony forming potential [3] | specificity for DOT1L as compared to other methyl transferases [4] | WBC counts at time of disease onset within the control group ([5]; cells treated ex vivo with EPZ4777 for 10 days) | survival of recipient animals ([5]; cells treated ex vivo with EPZ4777 for 10 days, versus vehicle) | survival compared to vehicle control [5] | cell proliferation and colony forming potential [6] | cell proliferation ([7]; HL-60, EPZ4777 10 μM) | H3K79me2 marks (immunoblotting and ChIP-PCR) [8] | CD11b expression [9] | FLT3 transcript levels [1, 11] | HOXA, HOXB cluster and MEIS1 gene expression [1, 11] | cell proliferation ([2]; OCI-AML3, dose response, 11 days of MI-2-2 treatment) | cell growth inhibition ([7]; HL-60 (no NPM1mut or MLL-rearrangement), MI-2-2 dose response) | potency compared with MI-2-2 (dose response curves) ([2]; human and murine NPM1mut leukemia cells) | leukemia burden (percentage of bone marrow cells expressing human CD45) ([10]; 7 and 12 days) | HOXB4, MEIS1 and FLT3 expression in sorted human CD45 positive cells [10] |
| --- | --- | --- | --- | --- | --- | --- | --- | --- | --- | --- | --- | --- | --- | --- | --- | --- | --- | --- | --- |
| CC(C)N(CCCNC(=O)Nc1ccc(C(C)(C)C)cc1)C[C@H]1O[C@@H](n2ccc3c(N)ncnc32)[C@H](O)[C@@H]1O [EPZ4777] | dramatic suppression | significant repression | profound reduction | unaffected | highly specific for DOT1L | significantly lower WBC counts | significant survival advantage | significantly prolonged survival | profound reduction | unaffected | global and HOXA and HOXB loci specific reduction |  |  |  |  |  |  |  |  |
| CC1(C)CN=C(N2CCN(c3ncnc4sc(CC(F)(F)F)cc34)CC2)S1 [MI-2-2] |  |  |  |  |  |  |  |  |  |  |  | 72% | substantially and highly significantly suppressed | significant down regulation | profound dose-dependent reduction in cell proliferation | only a mild cell growth inhibitory effect at higher doses |  |  |  |
| Cc1c(CN2CCC(Nc3ncnc4sc(CC(F)(F)F)cc34)CC2)ccc2c1cc(C#N)n2Cc1cn[nH]c1 [MI-503] |  |  |  |  |  |  |  | significantly prolonged survival |  |  |  |  |  |  |  |  | higher potency | significantly reduced | dramatic decrease of expression levels |
